Measurements published in PubChem BioAssay AID248 (DTP/NCI, 2004).
Where “and” joins values, the source holds several entries; their conditions need not be identical. Equal values may be shown once. Toxic doses and inconclusive results are not listed. Rule as the data show it: active = T/C of 150% or more; inactive = T/C below 125%.

Test system: L1210 leukemia ip in BDF1 mice, survival T/C
Test: NCI In Vivo Anticancer Drug Screen. Data for tumor model L1210 Leukemia (intraperitoneal) in B6D2F1 (BDF1) mice
Details: endpoint: mean survival time, higher = longer survival
Procedure, shortened: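 Each compound was tested against a transplantable tumor grown in mice. The endpoint was survival, with treated animals benchmarked against vehicle controls as a simple ratio.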

[1] = dose: 100.0 mg/kg/injection, schedule: Q04DX003 (ip), vehicle: saline with Tween-80
[2] = dose: 200.0 mg/kg/injection, schedule: Q04DX003 (ip), vehicle: saline with Tween-80
[3] = dose: 400.0 mg/kg/injection, schedule: Q04DX003 (ip), vehicle: saline with Tween-80
[4] = dose: 100.0 mg/kg/injection, schedule: Q01DX009 (ip), vehicle: saline with Tween-80
[5] = dose: 200.0 mg/kg/injection, schedule: Q01DX009 (ip), vehicle: saline with Tween-80

Measured: T/C

O=NN1CCN(c2ccccc2)C1=O
inactive: dose: 18.0 mg/kg/injection, schedule: Q01DX001 (ip), vehicle: carboxymethylcellulose (CMC) 94 % of control | dose: 37.0 mg/kg/injection, schedule: Q01DX001 (ip), vehicle: carboxymethylcellulose (CMC) 96 % of control | dose: 75.0 mg/kg/injection, schedule: Q01DX001 (ip), vehicle: carboxymethylcellulose (CMC) 102 % of control | dose: 100.0 mg/kg/injection, schedule: Q01DX001 (ip), vehicle: carboxymethylcellulose (CMC) 98 % of control | dose: 150.0 mg/kg/injection, schedule: Q01DX001 (ip), vehicle: carboxymethylcellulose (CMC) 98 % of control | dose: 200.0 mg/kg/injection, schedule: Q01DX001 (ip), vehicle: carboxymethylcellulose (CMC) 104 % of control | dose: 250.0 mg/kg/injection, schedule: Q01DX001 (ip), vehicle: carboxymethylcellulose (CMC) 96 % of control | dose: 300.0 mg/kg/injection, schedule: Q01DX001 (ip), vehicle: carboxymethylcellulose (CMC) 105 % of control | dose: 400.0 mg/kg/injection, schedule: Q01DX001 (ip), vehicle: carboxymethylcellulose (CMC) 98 % of control | dose: 500.0 mg/kg/injection, schedule: Q01DX001 (ip), vehicle: carboxymethylcellulose (CMC) 106 % of control | dose: 600.0 mg/kg/injection, schedule: Q01DX001 (ip), vehicle: carboxymethylcellulose (CMC) 91 % of control | dose: 800.0 mg/kg/injection, schedule: Q01DX001 (ip), vehicle: carboxymethylcellulose (CMC) 96 % of control

CCCCCCCCCCCCCCCCCCCCCCCC(=O)NCCc1c[nH]c2ccc(O)cc12 (tested in a mixture with another compound)
inactive: [1] 96 % of control | [2] 96 % of control | [3] 86 % of control

c1ccc(-c2cc[c]([Sn]([c]3ccccc3)([c]3ccccc3)[c]3ccccc3)cc2)cc1
inactive: dose: 100.0 mg/kg/injection, schedule: Q04DX002 (ip), vehicle: other 103 % of control | dose: 200.0 mg/kg/injection, schedule: Q04DX002 (ip), vehicle: other 107 % of control | dose: 400.0 mg/kg/injection, schedule: Q04DX002 (ip), vehicle: other 96 % of control

CC(=O)C12CC3CC1C2C3
inactive: dose: 75.0 mg/kg/injection, schedule: Q04DX003 (ip), vehicle: saline 106 % of control | dose: 150.0 mg/kg/injection, schedule: Q04DX003 (ip), vehicle: saline 102 % of control | dose: 300.0 mg/kg/injection, schedule: Q04DX003 (ip), vehicle: saline 101 % of control

CC1CN(CC2CCCCCCCCCCC2=O)CC(C)O1 (stereo not given)
inactive: dose: 100.0 mg/kg/injection, schedule: Q04DX002 (ip), vehicle: Klucel (hydroxypropylcellulose) (HPC) 116 % of control | dose: 200.0 mg/kg/injection, schedule: Q04DX002 (ip), vehicle: Klucel (hydroxypropylcellulose) (HPC) 90 % of control

O=C(NCc1cnccn1)c1ccccc1
inactive: [4] 104 % of control | [5] 98 % of control | dose: 400.0 mg/kg/injection, schedule: Q01DX009 (ip), vehicle: saline with Tween-80 92 % of control

CN1C(=O)NC(C)(c2cccs2)C1=O (stereo not given)
inactive: [4] 112 % of control | [1] 99 % of control | [5] 113 % of control | [2] 106 % of control | [3] 97 % of control

COc1cc2c(cc1OC)-c1nc(C)sc1CC2
inactive: [1] 98 % of control | [2] 95 % of control | [3] 98 % of control

CSc1ccc(NC(=O)CCl)cc1
inactive: dose: 25.0 mg/kg/injection, schedule: Q01DX009 (ip), vehicle: saline with Tween-80 97 % of control | dose: 25.0 mg/kg/injection, schedule: Q04DX003 (ip), vehicle: saline with Tween-80 97 % of control | dose: 50.0 mg/kg/injection, schedule: Q01DX009 (ip), vehicle: saline with Tween-80 108 % of control | dose: 50.0 mg/kg/injection, schedule: Q04DX003 (ip), vehicle: saline with Tween-80 95 % of control | [4] 100 % of control | [1] 101 % of control

CCCCCCC(/C=N/N=C(N)N)=N\N=C(N)N
inactive: dose: 15.0 mg/kg/injection, schedule: Q01DX Z (ip), vehicle: carboxymethylcellulose (CMC) 100 % of control | dose: 15.0 mg/kg/injection, schedule: Q01DX Z (oral), vehicle: carboxymethylcellulose (CMC) 101 % of control | dose: 30.0 mg/kg/injection, schedule: Q01DX Z (ip), vehicle: carboxymethylcellulose (CMC) 95 % of control | dose: 30.0 mg/kg/injection, schedule: Q01DX Z (oral), vehicle: carboxymethylcellulose (CMC) 93 % of control | dose: 60.0 mg/kg/injection, schedule: Q01DX Z (oral), vehicle: carboxymethylcellulose (CMC) 109 % of control

CC(=O)c1ccc(C)c2ccccc12
inactive: dose: 100.0 mg/kg/injection, schedule: Q01DX001 (ip), vehicle: saline 101 % of control | dose: 200.0 mg/kg/injection, schedule: Q01DX001 (ip), vehicle: saline 102 % of control | dose: 400.0 mg/kg/injection, schedule: Q01DX001 (ip), vehicle: saline 95 % of control

CCOCCOCCOC(C)Oc1ccccc1 (stereo not given)
inactive: dose: 100.0 mg/kg/injection, schedule: Q04DX002 (ip), vehicle: saline 104 % of control | dose: 200.0 mg/kg/injection, schedule: Q04DX002 (ip), vehicle: saline 111 % of control | dose: 400.0 mg/kg/injection, schedule: Q04DX002 (ip), vehicle: saline 104 % of control

O=C1CC2OCC=C3CN4CCC56c7ccccc7N1C5C2C3CC46 (stereo not given) (tested in a mixture with another compound)
inactive: dose: 0.12 mg/kg/injection, schedule: Q04DX003 (ip), vehicle: saline + Tween-80 + alkali 102 % of control | dose: 0.12 mg/kg/injection, schedule: Q04DX003 (ip), vehicle: saline 104 % of control | dose: 0.19 mg/kg/injection, schedule: Q04DX003 (ip), vehicle: alcohol 106 % of control | dose: 0.19 mg/kg/injection, schedule: Q04DX003 (ip), vehicle: saline + Tween-80 + alkali 100 % of control | dose: 0.19 mg/kg/injection, schedule: Q04DX003 (ip), vehicle: saline 104 % of control | dose: 0.25 mg/kg/injection, schedule: Q04DX003 (ip), vehicle: Klucel (hydroxypropylcellulose) (HPC) 101 % of control | dose: 0.28 mg/kg/injection, schedule: Q04DX003 (ip), vehicle: saline + Tween-80 + alkali 98 % of control | dose: 0.28 mg/kg/injection, schedule: Q04DX003 (ip), vehicle: saline 104 % of control | dose: 0.39 mg/kg/injection, schedule: Q01DX009 (ip), vehicle: saline 98 % of control and 95 % of control | dose: 0.39 mg/kg/injection, schedule: Q04DX003 (ip), vehicle: alcohol 103 % of control | dose: 0.5 mg/kg/injection, schedule: Q04DX003 (ip), vehicle: Klucel (hydroxypropylcellulose) (HPC) 93 % of control | dose: 0.75 mg/kg/injection, schedule: Q01DX009 (ip), vehicle: Klucel (hydroxypropylcellulose) (HPC) 92 % of control | dose: 0.78 mg/kg/injection, schedule: Q01DX009 (ip), vehicle: saline 101 % of control and 110 % of control | dose: 0.78 mg/kg/injection, schedule: Q04DX003 (ip), vehicle: alcohol 103 % of control | dose: 0.78 mg/kg/injection, schedule: Q04DX003 (ip), vehicle: saline + alcohol 102 % of control | dose: 0.78 mg/kg/injection, schedule: Q04DX003 (ip), vehicle: saline 100 % of control | dose: 1.0 mg/kg/injection, schedule: Q04DX003 (ip), vehicle: Klucel (hydroxypropylcellulose) (HPC) 101 % of control | dose: 1.5 mg/kg/injection, schedule: Q01DX009 (ip), vehicle: Klucel (hydroxypropylcellulose) (HPC) 97 % of control | dose: 1.5 mg/kg/injection, schedule: Q04DX003 (ip), vehicle: Klucel (hydroxypropylcellulose) (HPC) 100 % of control | dose: 1.56 mg/kg/injection, schedule: Q01DX009 (ip), vehicle: saline 90 % of control and 100 % of control | dose: 1.56 mg/kg/injection, schedule: Q04DX003 (ip), vehicle: alcohol 93 % of control | dose: 1.56 mg/kg/injection, schedule: Q04DX003 (ip), vehicle: saline + alcohol 93 % of control | dose: 1.56 mg/kg/injection, schedule: Q04DX003 (ip), vehicle: saline 93 % of control | dose: 6.0 mg/kg/injection, schedule: Q04DX003 (ip), vehicle: Klucel (hydroxypropylcellulose) (HPC) 110 % of control
